This note sets out measurements from patent US9173876B2, “Preparation and therapeutic applications of (2S,3R)-N-2-((3-pyridinyl)methyl)-1-azabicyclo[2.2.2]oct-3-yl)-3,5-difluorobenzamide” (Targacept, Inc., priority 2009, dated 2015).

One series concerns the target nicotinic α7 receptor (Homo sapiens, UniProt P36544). Nature of the series: Electrophysiology, co-application with ACh (hump currents, Dynaflow chip). Type of series: cell-based. How it is done: Hump currents are defined as the tail current observed during co-application with endogenous ACh following agonist removal.
The channels were prepared as follows: Control solution (channel #2), application ligand itself (channel #3), application of acetylcholine itself (channel #1), and application of mixture of acetylcholine and ligand (channel #4).
Curve 1, FIG. 7B: The bar above the curve indicates time of ACh application. The curve represents current induced by a one second application of 70 μM ACh. The curve illustrates the result from moving the cell from channel #2 to channel #1 for a 1 second application of ACh and back to channel 2 (washout).
Curve 4, FIG. 7B: Curve 4 represents a repetition of Curve 1 at the end of measurements after application of the ligand and ACh/ligand mixture (recovery).
Curve 2, FIG. 7B: The down/up arrows indicates time of application.

The test system of the next series is Sprague-Dawley rats. Kind of series: Complete Freund's adjuvant (CFA)-induced thermal hyperalgesia. Type of series: in vivo, rat. To be noted: 0.1, 1 or 10 mg/kg s.c., 1 hour post-dose, vs vehicle. The text has this:
Briefly, adult male Sprague-Dawley rats (BioLasco, Taiwan) weighing 180±20 g on receipt were randomly assigned to treatment groups of n=8 per group. […] A subject was placed within a plastic box atop an elevated glass floor and a light beam located under the glass floor was directed at the plantar surface of the right hind paw. The time required for the animal to withdraw the paw from the thermal stimulus was automatically recorded. The intensity of the light was adjusted to evoke an average group baseline latency from 12-14 seconds (pre-CFA) and a cut-off latency of 20 seconds was imposed. The latency for paw withdrawal was obtained for each rat and defined as the heat pain threshold.
Test substance, morphine and vehicle were administered by subcutaneous (s.c.) injection at time 0. The post-treatment level of thermal hyperalgesia was then measured at 60 minutes post-treatment. One-way ANOVA followed by Dunnett's test was applied for comparison between test substance treated groups and vehicle control group. Activity was considered significant at the P<0.05 level.

Series [1] has as its system STZ rat model of diabetic neuropathy. Kind of series: Streptozotocin (STZ)-induced diabetic neuropathy, Von Frey allodynia. The conditions noted are these: for Tactile allodynia (Von Frey): 30 min after administration. It counts as in vivo. The method, then: Diabetes was induced by a 0.5 ml injection of streptozotocin (60 mg/kg) dissolved in citrate buffer (pH=6) into the tail vein of each rat. The development of diabetes was confirmed by measuring the blood glucose levels (BGL) of all animals on study day 3 (BGL>300 mg/dL). […] These animals were tested again for their BGL at study day 23.
(2S,3R)—N-2-((3-pyridinyl)methyl)-1-azabicyclo[2.2.2]oct-3-yl)-3,5-difluorobenzamide (0.1, 1 or 10 mg/kg p.o.) was administered as a solution of the hydrochloride salt in water once daily starting on study day 14 or study day 16 and continuing through study day 21 or 23, respectively. The control article gabapentin (in 0.9% saline, 150 mg/kg i.p.) was only administered on allodynia test days. Test item, vehicle or control article administration was based on evaluation of allodynia on study day 14. If allodynia was not present on study day 14, the animal was evaluated again at study day 16. Pain response was measured either on study days 14 and 21 or 16 and 23, 30 minutes after Test Item administration.
For the allodynia assessments, Von Frey filaments were used according to the methods of Chaplan and colleagues (1994). Briefly, the rats were placed in an enclosure and positioned on a metal mesh surface, but allowed to move freely. The rats' cabins were covered with red cellophane to diminish environmental distributions. The test began after cessation of exploratory behavior.
When the tip of a Von Frey fiber of given length and diameter was pressed against the skin at right angles, the force of application increases as long as the researcher continued to advance the probe until the fiber bent. After the fiber bent, the probe was advanced, causing the fiber to bend more, but without additional force being applied. The animal would indicate sensation by pulling back its paw. In the absence of a paw withdrawal response to the initially selected filament, a stronger stimulus was presented: in the event of paw withdrawal, the next weaker stimulus was chosen. In this fashion, the resulting pattern of positive and negative responses was used to determine the paw withdrawal threshold.
The set of Von Frey monofilaments provide an approximate logarithmic scale of actual force and a linear scale of perceived intensity. Below is a table showing the force (g) and its corresponding size of monofilaments.
All normally distributed data are presented as means±SEM, as well as the animals' individual values followed by a student T-test (Software: Microsoft® Excel). A p value<0.05 is considered to represent a significant difference. Due to the non-normal distribution of the allodynia data, descriptions of those data are provided as both mean (+SEM) and median values in order to represent their imprecise nature and skewed distribution.

For series [2], the system named is ovalbumin-sensitized mice. Kind of series: Airway hyperresponsiveness, Penh response to methacholine. It counts as in vivo, mouse. To be noted: for Methacholine-induced increase in Penh values: FIG. 21. How it is done:
Using the method of Hamelmann et al, (2S,3R)—N-2-((3-pyridinyl)methyl)-1-azabicyclo[2.2.2]oct-3-yl)-3,5-difluorobenzamide was evaluated for possible inhibition of airway hyper-responsiveness in mice. Briefly, ovalbumin (OVA)-sensitized animals, 12 animals per group, were challenged by nasal inhalation with aerosolized 5% OVA for 25 min on days 21, 23, and 25. The mice were treated with vehicle or (2S,3R)—N-2-((3-pyridinyl)methyl)-1-azabicyclo[2.2.2]oct-3-yl)-3,5-difluorobenzamide subcutaneously (s.c.) twice daily from day 21 to day 26 or once daily intratracheally (i.t.), preceding ovalbumin aerosol challenge by 30 min on days 21, 23 and 25 as well as methacholine challenge or bronchoalveolar lavage fluids (BALF) harvest on day 26. Dexamethasone, the reference standard, was administered at 3 mg/kg orally (p.o.) once daily 60 min before OVA challenge on day 21, 23 and 25 and 60 min before methacholine provocation or BALF harvest on day 26. Noninvasive measurements of airway responsiveness were performed by using whole body plethysmography, in which increases in enhanced pause (Penh) serve as an index of airway obstruction. Responses to inhaled methacholine were measured and calculated as percentage of respective baseline values. Unpaired Student's t-test was used for comparison between the vehicle control and the sham group; one-way ANOVA and Dunnett's post-hoc analyses were applied for comparison between the vehicle control and treated groups. Statistical significance is considered at P<0.05.

Series [3] is described as follows: Aqueous solubility (salt screen). To be noted: free base form.

Sequence of nicotinic α7 receptor (P36544 23-502): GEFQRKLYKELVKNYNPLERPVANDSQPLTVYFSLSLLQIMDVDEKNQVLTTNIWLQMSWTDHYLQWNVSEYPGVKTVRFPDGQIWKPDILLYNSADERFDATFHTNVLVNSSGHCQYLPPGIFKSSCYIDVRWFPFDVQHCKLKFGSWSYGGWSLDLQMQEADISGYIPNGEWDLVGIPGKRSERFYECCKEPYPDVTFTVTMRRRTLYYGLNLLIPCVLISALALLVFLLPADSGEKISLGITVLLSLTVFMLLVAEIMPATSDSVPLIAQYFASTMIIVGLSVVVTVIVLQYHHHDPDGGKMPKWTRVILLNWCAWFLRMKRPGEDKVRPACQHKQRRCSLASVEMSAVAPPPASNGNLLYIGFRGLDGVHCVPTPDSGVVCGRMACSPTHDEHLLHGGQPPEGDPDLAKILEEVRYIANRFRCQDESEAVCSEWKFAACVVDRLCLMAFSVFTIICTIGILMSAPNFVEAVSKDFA

As to `O=C(N[C@@H]1C2CCN(CC2)[C@H]1Cc1cccnc1)c1cc(F)cc(F)c1` [Compound A], the “Hump current on application of compound following ACh” value on nicotinic α7 receptor (200 nM compound with ACh, Curve 3 FIG. 7B) is “profound “hump” current”. The “Current produced by compound alone” value on nicotinic α7 receptor (200 nM, 5 second application, Curve 2 FIG. 7B) is on record as “do not produce robust macro currents”. The “Concentration at EMAX of hump current” value on nicotinic α7 receptor (100-500 nM range, n=4, FIG. 7C) was “approximately 500 nM”. Besides, the “Effect on ACh-induced current on co-application with ACh” value at nicotinic α7 receptor (FIG. 6) is given as “enhanced ACh-induced current”. The “Analgesic effect on CFA-induced thermal hyperalgesia” value with Sprague-Dawley rats is listed as “not associated with any significant analgesic effect”. Further, the “Diabetic neuropathy pain, Von Frey assessment” value in series [1] (1 mg/kg and 10 mg/kg, compared to vehicle, FIG. 14) was “effective in reducing diabetic neuropathy pain”. Also, the “Tactile allodynia (Von Frey)” value is recorded as “inhibited allodynia” in series [1] (1 mg/kg p.o., study days 14/16, vs pretreatment p<0.01, vs vehicle p<0.05); “inhibited allodynia” in series [1] (1 mg/kg p.o., study days 21/23, vs pretreatment p=0.012); “inhibited allodynia” in series [1] (10 mg/kg p.o., study days 14/16, vs pretreatment p=0.012); “inhibited allodynia” in series [1] (10 mg/kg p.o., study days 21/23, vs vehicle p<0.05). The “Methacholine-induced increase in Penh values” in series [2] (10 mg/kg IT qd) was “significant inhibition”; in series [2] (0.1, 1, and 10 mg/kg bid s.c.), “significant inhibition”. The “Protection against airway hyper-responsiveness (summary)” value in series [2] (0.1, 1 and 10 mg/kg bid s.c. and 10 mg/kg i.t.) is listed as “significant protection against airway hyper-responsiveness”. In addition, the Water solubility result in series [3] was “limited”.
